Source: the supplement of paper PMC11208160
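Further: IS621 recombinase and bridge RNA in Escherichia coli cells.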

Assay: recombinant barcode read abundance after kanamycin selection (control-corrected) (log10(CPM+1)); higher = more efficient recombination; sequences stand for … in AGTGCAGAGAAAATCGGCCAGTTTTCTCTGCCTGCAGTCCGCATGCCGT…AGATTTATGCAGCGGACTGCCTTTCTCCCAAAGTGATAAACCGGACAGTATCATGGACCGGTTTTCCCGGTAATCCGTATTTGCAAGGTTGGTTTCACT; site = the 11-nt target
How it was run: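 A promoter, a target, a barcode and the first 104 bridge RNA bases under J23119 made up each oligo. Oligos were Gibson-cloned into a vector bearing the other 73 bp and a T7-inducible recombinase, then co-electroporated into E. coli with a donor plasmid and plated in duplicate on chloramphenicol/ampicillin LB agar (control) or chloramphenicol/ampicillin/kanamycin with 0.1 mM IPTG. Recombination efficiency is the averaged, control-corrected counts per million of recombinant-junction barcodes. Reported values are log10(CPM+1).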
For “AGATACTCTTGGGTTCTAACCTGTTGCCT (site AGATACTCTAG)”, the “recombinant barcode read abundance (log10)” value was 2.66. With “TCGTACCCTTGGGTTCTAACCTGTTGCGA (site TCGCACCCTTC)” the “recombinant barcode read abundance (log10)” value was 0.0875. In the case of “GGAATTCCTTGGGTTCTAACCTGTTGCCT (site GGAATGCCTAG)”, the “recombinant barcode read abundance (log10)” value is reported as 0.0669. With “CCTAATCCTTGGGTTCTAACCTGTTGCGT (site CCTAATCCTAC)” the “recombinant barcode read abundance (log10)” value was 1.1. With “CTAACCTCTTGGGTTCTAACCTGTTGCTC (site CTAACCTCTAA)” the “recombinant barcode read abundance (log10)” value was 0.0754. For “CTAACCTCTTGGGTTCTAACCTGTTGCTG (site CTAACCTCTAA)”, the “recombinant barcode read abundance (log10)” value was 0.0311. With “TCGGTGACTTGGGTTCTAACCTGTTGCCT (site TCGGTGACTAG)” the “recombinant barcode read abundance (log10)” value was 0.87. With “GAGTACCCTTGGGTTCTAACCTGTTGCCT (site GCGTACCCTAG)” the “recombinant barcode read abundance (log10)” value was 0.162. In the case of “CGGCTACCTTGGGTTCTAACCTGTTGCCT (site CAGCTACCTAG)”, the “recombinant barcode read abundance (log10)” value is reported as 0.194. In the case of “GCGCTTACTTGGGTTCTAACCTGTTGCCT (site GAGCTTACTAG)”, the “recombinant barcode read abundance (log10)” value is reported as 0.191. For “TGTCAATCTTGGGTTCTAACCTGTTGCGT (site TGTCAATCTAC)”, the “recombinant barcode read abundance (log10)” value was 0.543. With “ACATACCCTTGGGTTCTAACCTGTTGCTG (site ACATACCCTCA)” the “recombinant barcode read abundance (log10)” value was 1.81. With “CTCGGATCTTGGGTTCTAACCTGTTGCCA (site CTCGGATCTTG)” the “recombinant barcode read abundance (log10)” value was 0.0484. For “GCACATTCTTGGGTTCTAACCTGTTGCCT (site GCACATACTAG)”, the “recombinant barcode read abundance (log10)” value was 0.0258. In the case of “CTAGTTGCTTGGGTTCTAACCTGTTGCAA (site CTAGTTGCTTT)”, the “recombinant barcode read abundance (log10)” value is reported as 0.328. In the case of “TTAGGTCCTTGGGTTCTAACCTGTTGCTT (site TTAGGTCCTAA)”, the “recombinant barcode read abundance (log10)” value is reported as 1.64. With “CATTATTCTTGGGTTCTAACCTGTTGCCT (site CATCATTCTAG)” the “recombinant barcode read abundance (log10)” value was 0.0417. For “CGAATCGCTTGGGTTCTAACCTGTTGCCT (site CGAATCACTAG)”, the “recombinant barcode read abundance (log10)” value was 0.374. For “CCTAGAGCTTGGGTTCTAACCTGTTGCCT (site CCTAGAACTAG)”, the “recombinant barcode read abundance (log10)” value was 0.097. In the case of “CTACACCCTTGGGTTCTAACCTGTTGCTT (site CTACAACCTAA)”, the “recombinant barcode read abundance (log10)” value is reported as 0.0455. In the case of “ATAGGTCCTTGGGTTCTAACCTGTTGCCT (site ATGGGTCCTAG)”, the “recombinant barcode read abundance (log10)” value is reported as 0.189. In the case of “ACCTTAGCTTGGGTTCTAACCTGTTGCTT (site TAGGCGACTTG)”, the “recombinant barcode read abundance (log10)” value is reported as 0.0735. For “CAGATTCCTTGGGTTCTAACCTGTTGCCT (site CAGATTCCTAG)”, the “recombinant barcode read abundance (log10)” value was 0.542. In the case of “TTAGGTCCTTGGGTTCTAACCTGTTGCTT (site TTAAGTCCTAT)”, the “recombinant barcode read abundance (log10)” value is reported as 0.357. In the case of “GTCGGTCCTTGGGTTCTAACCTGTTGCAC (site TGAAACTCTCC)”, the “recombinant barcode read abundance (log10)” value is reported as 0.0122. In the case of “CATCGAGCTTGGGTTCTAACCTGTTGCCG (site CAACGAGCTCG)”, the “recombinant barcode read abundance (log10)” value is reported as 0.228. With “CCTAAGCCTTGGGTTCTAACCTGTTGCTG (site CCTAAGCCTCA)” the “recombinant barcode read abundance (log10)” value was 0.473. For “TTGAGTACTTGGGTTCTAACCTGTTGCCG (site TTGAGTACTCG)”, the “recombinant barcode read abundance (log10)” value was 0.577. In the case of “CTCCAGCCTTGGGTTCTAACCTGTTGCGG (site CTCCAGCCTCC)”, the “recombinant barcode read abundance (log10)” value is reported as 1.49. With “GCACGTGCTTGGGTTCTAACCTGTTGCCT (site GCACGTGCTAG)” the “recombinant barcode read abundance (log10)” value was 0.624. For “GCACCCTCTTGGGTTCTAACCTGTTGCCT (site GCACGCTCTAG)”, the “recombinant barcode read abundance (log10)” value was 0.0715. In the case of “CGACTGTCTTGGGTTCTAACCTGTTGCCT (site AAGTACACTCA)”, the “recombinant barcode read abundance (log10)” value is reported as 0.0207. In the case of “TACCCACCTTGGGTTCTAACCTGTTGCCT (site GACCCACCTAG)”, the “recombinant barcode read abundance (log10)” value is reported as 0.262. For “TGAGTCCCTTGGGTTCTAACCTGTTGCCT (site TGGGTCCCTAG)”, the “recombinant barcode read abundance (log10)” value was 0.444. With “GGGCTCACTTGGGTTCTAACCTGTTGCCT (site GGTCCCACTAG)” the “recombinant barcode read abundance (log10)” value was 0.184. For “AATGGGACTTGGGTTCTAACCTGTTGCGA (site AATGGGACTTC)”, the “recombinant barcode read abundance (log10)” value was 2.42. For “TTGCCTACTTGGGTTCTAACCTGTTGCCT (site TTGCCGACTAG)”, the “recombinant barcode read abundance (log10)” value was 0.0577. In the case of “CAAACTCCTTGGGTTCTAACCTGTTGCCT (site CAAACTCCTAC)”, the “recombinant barcode read abundance (log10)” value is reported as 0.0217. For “GAGGTATCTTGGGTTCTAACCTGTTGCGT (site GAGGTATCTAC)”, the “recombinant barcode read abundance (log10)” value was 0.252. In the case of “CCATACTCTTGGGTTCTAACCTGTTGCTT (site CCATACTCTAA)”, the “recombinant barcode read abundance (log10)” value is reported as 1.17. In the case of “CTGAGCCCTTGGGTTCTAACCTGTTGCCT (site CTGGGCCCTAG)”, the “recombinant barcode read abundance (log10)” value is reported as 0.354. With “GCTCATTCTTGGGTTCTAACCTGTTGCCT (site GCTCATTCTAG)” the “recombinant barcode read abundance (log10)” value was 0.557. For “CTAACTACTTGGGTTCTAACCTGTTGCCT (site CTAACCACTTG)”, the “recombinant barcode read abundance (log10)” value was 0. With “AGAGGTTCTTGGGTTCTAACCTGTTGCCT (site ACAGGTTCTAG)” the “recombinant barcode read abundance (log10)” value was 0.0172. In the case of “TCTTGTTCTTGGGTTCTAACCTGTTGCCT (site TCTTGTTCTAG)”, the “recombinant barcode read abundance (log10)” value is reported as 0.145. For “TATACAGCTTGGGTTCTAACCTGTTGCCT (site TAGACAGCTAG)”, the “recombinant barcode read abundance (log10)” value was 0.0546. With “GGCACAGCTTGGGTTCTAACCTGTTGCCT (site GGCACTGCTAG)” the “recombinant barcode read abundance (log10)” value was 0.0566. For “GAGAGCACTTGGGTTCTAACCTGTTGCCT (site AAGAGCACTAG)”, the “recombinant barcode read abundance (log10)” value was 0.256. With “GTACAGCCTTGGGTTCTAACCTGTTGCCT (site GTACGGCCTAG)” the “recombinant barcode read abundance (log10)” value was 0.0431. With “CCAAGCTCTTGGGTTCTAACCTGTTGCCT (site CCAAGCCCTAG)” the “recombinant barcode read abundance (log10)” value was 0.177. In the case of “CATAGATCTTGGGTTCTAACCTGTTGCAT (site CATAGATCTAT)”, the “recombinant barcode read abundance (log10)” value is reported as 1.22. With “GGCTCCTCTTGGGTTCTAACCTGTTGCAT (site GGCTCCTCTAT)” the “recombinant barcode read abundance (log10)” value was 0.907. In the case of “TCTTATACTTGGGTTCTAACCTGTTGCGT (site TCTTATACTAC)”, the “recombinant barcode read abundance (log10)” value is reported as 0.403. For “CTTAAATCTTGGGTTCTAACCTGTTGCCT (site CTTGAATCTAG)”, the “recombinant barcode read abundance (log10)” value was 0.24. In the case of “TCTCACTCTTGGGTTCTAACCTGTTGCCT (site TCACACTCTAG)”, the “recombinant barcode read abundance (log10)” value is reported as 0.0111. With “TAGGCCACTTGGGTTCTAACCTGTTGCCT (site TAGGCCACTAC)” the “recombinant barcode read abundance (log10)” value was 0.122. For “GTGGTATCTTGGGTTCTAACCTGTTGCCT (site GTGGTAGCTAG)”, the “recombinant barcode read abundance (log10)” value was 0.312. With “TAAAGGGCTTGGGTTCTAACCTGTTGCCT (site TAAAGGGCTAG)” the “recombinant barcode read abundance (log10)” value was 0.4. In the case of “TGAACGTCTTGGGTTCTAACCTGTTGCCT (site TGAAAGTCTAG)”, the “recombinant barcode read abundance (log10)” value is reported as 0.232. In the case of “TCGCACTCTTGGGTTCTAACCTGTTGCCT (site TCACACTCTAG)”, the “recombinant barcode read abundance (log10)” value is reported as 1.22. For “CCGGACCCTTGGGTTCTAACCTGTTGCCT (site CCGGACCCTAG)”, the “recombinant barcode read abundance (log10)” value was 1.88. For “CGGAGCCCTTGGGTTCTAACCTGTTGCCT (site CGGAGCCCTAG)”, the “recombinant barcode read abundance (log10)” value was 1.27. For “TATAGGACTTGGGTTCTAACCTGTTGCGT (site GATAGGACTAC)”, the “recombinant barcode read abundance (log10)” value was 0.0102. For “TAACCTTCTTGGGTTCTAACCTGTTGCCT (site TAACCTCCTAG)”, the “recombinant barcode read abundance (log10)” value was 0.019. For “GGGTTGCCTTGGGTTCTAACCTGTTGCCT (site GTGTTGCCTAG)”, the “recombinant barcode read abundance (log10)” value was 0.144. In the case of “AGAGTAACTTGGGTTCTAACCTGTTGCAC (site AGAGTAACTGT)”, the “recombinant barcode read abundance (log10)” value is reported as 2.19.
